Test results from PubChem BioAssay (NCI).
Where “and” joins values, the source holds several entries; their conditions need not be identical. Equal values may be shown once.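 Method: 48-hour compound exposure of cells in 96-well plates, five concentrations, linear interpolation of endpoints. At the GI50, growth is halved. TGI denotes the concentration required for complete inhibition of growth.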

Assays:
Experiment in all cases: NCI-60 cell line screen, 48 h
A549 NSCLC = test system: A549 NSCLC
SK-MEL-2 melanoma = test system: SK-MEL-2 melanoma
UACC-257 melanoma = test system: UACC-257 melanoma
UO-31 renal = test system: UO-31 renal
NCI-H226 lung = test system: NCI-H226 lung
NCI-H460 lung = test system: NCI-H460 lung
CCRF-CEM leukemia = test system: CCRF-CEM leukemia
TK-10 renal = test system: TK-10 renal
OVCAR-5 ovarian = test system: OVCAR-5 ovarian
MDA-MB-435 = test system: MDA-MB-435

| Structure (SMILES) | TGI (A549 NSCLC) | TGI (SK-MEL-2 melanoma) [µM] | TGI (UACC-257 melanoma) | TGI (UO-31 renal) | TGI (NCI-H226 lung) [µM] | TGI (NCI-H460 lung) | TGI (CCRF-CEM leukemia) | TGI (TK-10 renal) | TGI (OVCAR-5 ovarian) [µM] | GI50 (A549 NSCLC) [µM] | GI50 (SK-MEL-2 melanoma) [µM] | GI50 (UO-31 renal) [µM] | GI50 (TK-10 renal) [µM] | GI50 (MDA-MB-435) [µM] | TGI (MDA-MB-435) [µM] | GI50 (UACC-257 melanoma) [µM] | GI50 (NCI-H460 lung) [µM] | GI50 (CCRF-CEM leukemia) [µM] | GI50 (NCI-H226 lung) [µM] | GI50 (OVCAR-5 ovarian) [µM] |
| --- | --- | --- | --- | --- | --- | --- | --- | --- | --- | --- | --- | --- | --- | --- | --- | --- | --- | --- | --- | --- |
| COc1cccc(-c2cc(=O)c3cc4c(cc3[nH]2)OCO4)c1 | > 100 µM | 3.77 | > 100 µM | > 100 µM | 0.593 | 0.898 µM | > 100 µM | 54.5 µM | 3.02 |  |  |  |  |  |  |  |  |  |  |  |
| COc1cc(C(=O)N[C@H]2CCc3cc(OC)c(OC)c(OC)c3-c3ccc(SC)c(=O)cc32)cc(OC)c1OC | 25 µM and > 100 µM |  | 19.1 µM and > 100 µM | 25 µM and 22.2 µM |  | 0.0137 µM and 0.0808 µM | 25 µM and > 100 µM | 25 µM and > 100 µM | 25 | 0.017 | 0.02 | 0.266 | 16.1 |  |  |  |  |  |  |  |
| CCOc1cccc2c1N[S@@](=O)S2 | > 100 µM | > 100 | > 100 µM | > 100 µM | > 100 |  | > 100 µM | > 100 µM |  |  |  |  |  |  |  |  |  |  |  |  |
| COC(=O)C(C(=O)C(=O)Nc1ccc(C)cc1C)c1csc(-n2nc(-c3ccccc3)cc2-c2ccccc2)n1 (stereo not given) | > 100 µM |  | > 100 µM | > 100 µM | > 100 | > 100 µM | > 100 µM | > 100 µM | > 100 |  |  |  |  |  |  |  |  |  |  |  |
| O=c1c2c(-c3ccccc3)c3ccccc3nc2cnn1-c1ccccc1 | > 100 µM | > 100 | > 100 µM | > 100 µM | > 100 | > 100 µM | > 100 µM | > 100 µM | > 100 |  |  |  |  |  |  |  |  |  |  |  |
| CC(C)(C)NCC(O)COc1c(Br)c(Br)c(Br)c2c1OC(C)(C)C2 (stereo not given) | 3.84 µM | 3.23 | 3.91 µM | 3.23 µM |  | 3.28 µM | 3.76 µM | 3.52 µM |  | 2.06 | 1.6 | 1.76 | 2.04 | 2.02 | 3.96 | 1.99 | 1.77 | 1.97 |  |  |
| C=C1C(=O)C23[C@H](O)C1CC[C@H]2[C@]12COC3(O)[C@@H](O)[C@@H]1C(C)(C)CC[C@@H]2O | 44.7 µM | 11 | 29.5 µM | 29 µM |  | 30.7 µM | 95 µM | 31 µM | 32.7 |  |  |  |  |  |  |  |  |  |  |  |
| CCCC(=O)N[C@H]1CCc2cc(OC)c(OC)c(OC)c2-c2ccc(SC)c(=O)cc21 | > 100 µM |  | > 74.1 µM | > 100 µM | 0.215 | 0.0522 µM | > 100 µM | 99.9 µM | > 100 |  |  |  |  |  | < 0.01 |  |  |  |  |  |
| COC(=O)c1cc(=O)nc2cc3cccccc3n12 | > 100 µM |  | > 100 µM | > 100 µM | > 100 | > 100 µM | > 100 µM | > 100 µM | > 100 |  |  |  |  |  |  |  |  |  |  |  |
| CC1=Nc2ccccc2SC(c2c(Cl)cccc2Cl)C1 (stereo not given) | 4.43 µM |  | 3.3 µM | 3.09 µM | 3.05 | 3.26 µM | 2.26 µM | 3.89 µM | 4.08 |  |  |  |  |  |  |  |  |  |  |  |
| COc1ccc(C(=O)c2sc3nc(-c4ccccc4OC)ccc3c2N)cc1OC | > 100 µM |  | > 100 µM | > 100 µM | > 100 | > 100 µM | > 100 µM | 33.4 µM | > 100 | 5.85 |  | 5.26 | 4.87 | 4.25 | > 100 | 6.05 | 9.61 | 4.07 | 5.13 | > 100 |
| CC1CC2(S(=O)(=O)c3ccccc3)ON1CC2S(=O)(=O)c1ccccc1 (stereo not given) | > 100 µM | > 100 | > 100 µM | > 100 µM | > 100 | > 100 µM | > 100 µM | > 100 µM | > 100 |  |  |  |  |  |  |  |  |  |  |  |
| OC1=CN=COc2ccccc21 | > 100 µM | > 100 | > 100 µM | > 100 µM |  | > 100 µM | > 100 µM | > 100 µM |  |  |  |  |  |  |  |  |  |  |  |  |
| COc1ccc(/C=C(\NC(=O)c2ccccc2)c2nc3ccccc3[nH]2)cc1OC | > 100 µM | > 100 | > 100 µM | > 100 µM | > 100 | > 100 µM | > 100 µM | > 100 µM | > 100 |  |  |  |  |  |  |  |  |  |  |  |
| CCCCCCC(O)CC[C@H]1CCC[C@@H](C)N1 (stereo not given in full) | > 100 µM | < 10 | < 10 µM | > 100 µM | > 100 | > 100 µM | > 100 µM | > 100 µM | < 10 |  |  |  |  |  |  |  |  |  |  |  |
| O=C1CCC2(c3ccccc3)Nc3ccccc3N12 (stereo not given) | > 100 µM | > 100 | > 100 µM | > 100 µM | > 100 | > 100 µM | > 100 µM | > 100 µM | > 100 |  |  |  |  |  |  |  |  |  |  |  |
| COc1ccccc1-c1cc(=O)c2cc(C)c(C)c(C(=O)O)c2o1 | > 100 µM | > 100 | > 100 µM | > 100 µM |  | > 100 µM | > 100 µM | > 100 µM | > 100 |  |  |  |  |  |  |  |  |  |  |  |
| CCOc1ccc(N=C(NC(=O)c2ccccc2)SC)cc1 | > 100 µM | > 100 | > 100 µM | > 100 µM | > 100 | > 100 µM | > 100 µM | > 100 µM | > 100 |  |  |  |  |  |  |  |  |  |  |  |
| COc1cc2c(c3c1c(=O)c1ccccc1n3C)C=CC(C)(C)O2 | > 100 µM | > 100 | > 100 µM | > 100 µM | > 100 | > 100 µM | > 100 µM | > 100 µM | > 100 |  |  |  |  |  |  |  |  |  |  |  |
| Clc1ccccc1CN1COc2c(ccc3cccnc23)C1 | 14.2 µM | 6.63 | 8.2 µM | 7.2 µM | 19.4 | 20.8 µM | 1.74 µM | 23.2 µM | 22.8 |  |  |  |  |  |  |  |  |  |  |  |
| COc1cc(C2=NN(C(C)=O)C(c3cc(OC)c(OC)c(OC)c3)C2)ccc1O (stereo not given) | > 100 µM | > 100 | > 100 µM | > 100 µM | > 100 | > 40.8 µM |  | > 100 µM | > 100 | 0.579 |  | 0.809 | 0.723 |  |  | > 93.6 | 0.346 | 0.342 | 23.6 | 6.74 |
